Measurements as given in patent publication US20250114389A1, “NUCLEOSIDES AND NUCLEOTIDES ANALOGS AS ANTIVIRAL AGENTS” (Emory University, priority 2021, published 2025).
pEC50: −log10 of the molar value.

Legend:
SARS-CoV-2 [1] = assay: Anti-SARS-CoV-2 activity in Vero cells (virus yield inhibition); format: cell-based
[2] = format: in vitro ADME; conditions: hamster, 10 μM
Procedure: An aliquot of 450 μL of human, mouse or hamster plasma were exposed to 10 μM of compound and incubated at 37° C. At 0, 5, 15, 30, 60, 90 and 120 min, 50 μL of plasma sample was mixed with 200 μL of ice-cold methanol (70%). 50 μL supernatant was dried and reconstituted in 100 μL H2O. Propantheline bromide was used as positive control. The supernatant was then subjected to LC-MS analysis (LC-MS condition: Instrument: Thermo TSQ Quantiva. Column: Kinetex […] (50×2.1 mm, […]). LC buffers: A): 0.1% formic acid, and B): acetonitrile. MRM methods: (269.2-112 positive), Indinavir (IS, 614.4-421.2 positive, IS)). The stability results are shown in FIGS. 2-4 (human plasma, mouse plasma and hamster plasma, respectively). Compound A is stable in human and mouse plasma up to 2 hours and stable up to […] in hamster plasma. Compound 23 was converted to compound A in hamster plasma in less than 5 min.

Caco2 cells = conditions: read-out: Cytotoxicity CC50 Caco2
Calu3 cells = conditions: read-out: Cytotoxicity CC50 Calu3
SARS-CoV-2 [3] = assay: Anti-SARS-CoV-2 activity in Calu3 cells (virus yield inhibition); format: cell-based; conditions: Severe acute respiratory syndrome coronavirus 2, Calu-3, Table 1
SARS-CoV-2 [4] = assay: Anti-SARS-CoV-2 activity in Caco2 cells (virus yield inhibition); conditions: for pEC50: Severe acute respiratory syndrome coronavirus 2, Caco-2, read-out: Anti-SARS-CoV-2 Activity (Caco2) EC50; for EC90: Severe acute respiratory syndrome coronavirus 2, Caco-2, read-out: Anti-SARS-CoV-2 Activity (Caco2) EC90
[5] = tested on: CEM (human lymphoblastoid) cells; assay: Cytotoxicity in CEM cells; format: cell-based
Procedure: (§1) The toxicity of the compounds was assessed in Vero, human PBM, CEM (human lymphoblastoid), MT-2, and HepG2 cells, as described previously (see Schinazi R. F., Sommadossi J.-P., Saalmann V., Cannon D. L., Xie M.-Y., Hart G. C., Smith G. A. & Hahn E. F. Antimicrob. Agents Chemother. 1990, 34, 1061-67). Cycloheximide was included as positive cytotoxic control, and untreated cells exposed to solvent were included as negative controls. The cytotoxicity IC50 was obtained from the concentration-response curve using the median effective method described previously (see Chou T.-C. & Talalay P. Adv. Enzyme Regul. 1984, 22, 27-55; Belen'kii M. S. & Schinazi R. F. Antiviral Res. 1994, 25, 1-11).

Vero cells = assay: Cytotoxicity in Vero cells; conditions: read-out: Cytotoxicity CC50 Vero; Vero cells
human PBM cells = assay: Cytotoxicity in PBM cells; format: cell-based
Procedure: as §1

Huh7 cells = assay: Cytotoxicity in Huh7 cells; format: cell-based
SARS-CoV-2 [6] = assay: Anti-SARS-CoV-2 activity in Calu3 ALI culture; format: cell-based; conditions: Severe acute respiratory syndrome coronavirus 2, Calu-3; Calu3 air-liquid interface
SARS-CoV-2 [7] = assay: Anti-SARS-CoV-2 activity in HAE-ALI culture; format: cell-based; conditions: Severe acute respiratory syndrome coronavirus 2; HAE air-liquid interface
[8] = Cytotoxicity in Vero cells; conditions: African green monkey, Vero kidney cells
[9] = Cytotoxicity in PBM cells; format: cell-based, human; conditions: human
Procedure: as §1

[10] = Cytotoxicity in Huh7 cells; format: cell-based; conditions: human
[11] = Cytotoxicity in CEM cells; format: cell-based, human; conditions: human, CEM lymphoblastoid cells
Procedure: as §1

Omicron [12] = assay: Anti-Omicron activity in Calu-3; format: cell-based, SARS-CoV-2; conditions: Severe acute respiratory syndrome coronavirus 2
Omicron [13] = assay: microbe, parasite or virus in culture
[14] = Severe acute respiratory syndrome coronavirus 2, Table 2, read-out: Anti-SARS-CoV-2 activity in Vero cells EC50
[15] = Severe acute respiratory syndrome coronavirus 2, Table 2, read-out: Anti-SARS-CoV-2 activity in Vero cells EC90
[16] = Severe acute respiratory syndrome coronavirus 2, Table 1, read-out: Anti-SARS-CoV-2 Activity (Vero) EC50
[17] = Severe acute respiratory syndrome coronavirus 2, Table 1, read-out: Anti-SARS-CoV-2 Activity (Vero) EC90

Compound	pEC50 (SARS-CoV-2 [3])	EC90 (SARS-CoV-2 [3])	pEC50 (SARS-CoV-2 [4])	EC90 (SARS-CoV-2 [4])	pEC50 (SARS-CoV-2 [1]; [16])	EC90 (SARS-CoV-2 [1]; [17])	CC50 [8]	also measured
N#C[C@@]1(n2ncc(N)nc2=O)O[C@H](CO)C(O)C1O (stereo partly shown)	–	–	–	–	–	–	–	pEC50 (SARS-CoV-2 [1]; [14]): 5.40; EC90 (SARS-CoV-2 [1]; [15]): 9.8 µM
CCC(CC)COC(=O)[C@H](C)N[P@](=O)(OC[C@@H]1O[C@](C#N)(c2ccc3c(N)ncnn23)C(O)C1O)Oc1ccccc1 (stereo partly shown)	–	–	–	–	–	–	–	pEC50 (SARS-CoV-2 [1]; [14]): > 5.00
N#C[C@]1(c2ccc3c(N)ncnn23)O[C@@H](CO)C(O)C1O (stereo partly shown)	–	–	–	–	–	–	–	pEC50 (SARS-CoV-2 [1]; [14]): < 5.00
N#C[C@@]1(c2ccc3c(N)ncnn23)O[C@H](CO)C(O)C1O (stereo partly shown)	–	–	–	–	–	–	–	pEC50 (SARS-CoV-2 [1]; [14]): > 5.00
CC(C)C(=O)OC[C@H]1O[C@@](C#N)(n2ccc(N)nc2=O)[C@H](O)[C@@H]1O [Compound 23, ((2R,3S,4R,5R)-5-(4-Amino-2-oxopyrimidin-1(2H)-yl)-5-cyano-3,4-dihydroxytetrahydro-furan-2-yl)methyl isobutyrate]	–	–	–	–	–	–	–	time for conversion to compound A in plasma [2]: less than 5 min
C[C@@H]1C[C@@H]([C@H](O)CC2CC(=O)NC(=O)C2)C(=O)[C@@H](C)C1 [Cyclohexamide]	–	–	–	–	–	–	–	CC50 (Caco2 cells): 10 µM; CC50 (Calu3 cells): 10 µM
O=c1nc(NO)ccn1[C@@H]1O[C@H](CO)[C@@H](O)[C@H]1O [NHC, N^4-hydroxycytidine, reference compound]	6.22	2 µM	6.00	> 10 µM	6.70	0.42 µM	–	CC50 [5]: 2.6 µM; CC50 (Vero cells): 16.5 µM
CCC(CC)COC(=O)[C@H](C)N[P@](=O)(OC[C@H]1O[C@@](C#N)(c2ccc3c(N)ncnn23)[C@H](O)[C@@H]1O)Oc1ccccc1 [Remdesivir, reference compound]	–	0.6 µM	8.40	0.04 µM	6.00	3.5 µM	> 100 µM	CC50 (human PBM cells): 6.4 µM; pEC50 (SARS-CoV-2 [1]; [14]): 5.92; EC90 (SARS-CoV-2 [1]; [15]): 3.6 µM; CC50 (Huh7 cells): 1.5 µM; CC50 [5]: 12 µM; pEC50 (SARS-CoV-2 [6]): 6.05; EC90 (SARS-CoV-2 [6]): 4.6 µM; EC90 (SARS-CoV-2 [7]): 1.2 µM
N#C[C@@]1(n2ccc(=O)[nH]c2=O)O[C@H](CO)C(O)C1O (stereo partly shown) [drawing 119]	7.10	0.7 µM	7.70	0.2 µM	5.33	8.5 µM	–	–
CC(C)OC(=O)[C@H](C)N[P@](=O)(OC[C@H]1O[C@@](C#N)(n2ccc(N)nc2=O)C(O)C1O)Oc1ccccc1 (stereo partly shown) [drawing 120]	< 5.00	> 10 µM	6.15	2.1 µM	< 5.00	> 10 µM	–	–
CC(C)C(=O)OC[C@H]1O[C@@](C#N)(n2ccc(=O)[nH]c2=O)C(O)C1O (stereo partly shown) [drawing 121]	6.70	0.7 µM	5.68	5.7 µM	< 5.00	–	–	–
CC(C)C(=O)OC[C@H]1O[C@@](C#N)(n2ccc(N)nc2=O)C(O)C1O (stereo partly shown) [drawing 122]	5.92	4 µM	6.30	2.5 µM	5.92	2.2 µM	–	–
CCCCCCCC(=O)OC[C@H]1O[C@@](C#N)(n2ccc(N)nc2=O)C(O)C1O (stereo partly shown) [drawing 123]	6.70	1.2 µM	6.15	1.7 µM	6.40	1.1 µM	–	–
CC(C)[C@H](N)C(=O)OC1C(O)[C@](C#N)(n2ccc(N)nc2=O)O[C@@H]1CO (stereo partly shown) [drawing 124]	6.52	4.3 µM	5.48	8.3 µM	5.64	6.6 µM	–	–
N#C[C@@]1(n2ccc(=O)[nH]c2=O)O[C@H](CO)C(O)C1O (stereo partly shown) [drawing 130]	–	–	–	–	–	–	> 100 µM	CC50 [9]: > 100 µM; CC50 [10]: > 100 µM; CC50 [11]: 12.1 µM
CC(C)OC(=O)[C@H](C)N[P@](=O)(OC[C@H]1O[C@@](C#N)(n2ccc(N)nc2=O)C(O)C1O)Oc1ccccc1 (stereo partly shown) [drawing 131]	–	–	–	–	–	–	> 100 µM	CC50 [9]: > 100 µM; CC50 [10]: > 100 µM; CC50 [11]: > 100 µM
CC(C)C(=O)OC[C@H]1O[C@@](C#N)(n2ccc(=O)[nH]c2=O)C(O)C1O (stereo partly shown) [drawing 132]	–	–	–	–	–	–	> 100 µM	CC50 [9]: > 100 µM; CC50 [10]: 88.9 µM; CC50 [11]: 39 µM
CC(C)C(=O)OC[C@H]1O[C@@](C#N)(n2ccc(N)nc2=O)C(O)C1O (stereo partly shown) [drawing 133]	–	–	–	–	–	–	73.8 µM	CC50 [9]: 63.1 µM; CC50 [10]: > 100 µM; CC50 [11]: 15.8 µM
CCCCCCCC(=O)OC[C@H]1O[C@@](C#N)(n2ccc(N)nc2=O)C(O)C1O (stereo partly shown) [drawing 134]	–	–	–	–	–	–	45.7 µM	CC50 [9]: > 100 µM; CC50 [10]: 77.8 µM; CC50 [11]: 3.7 µM
CC(C)[C@H](N)C(=O)OC1C(O)[C@](C#N)(n2ccc(N)nc2=O)O[C@@H]1CO (stereo partly shown) [drawing 135]	–	–	–	–	–	–	93.5 µM	CC50 [9]: > 100 µM
N#C[C@@]1(n2ccc(=O)[nH]c2=O)O[C@H](CO)C(O)C1O (stereo partly shown) [drawing 137]	–	–	–	–	–	–	–	pEC50 (Omicron [12]): 5.42; EC90 (Omicron [12]): > 10 µM; pEC50 (Omicron [13]; Severe acute respiratory syndrome coronavirus 2, Caco-2, read-out: Anti-Omicron Activity (Caco-2) EC50): < 5.00; EC90 (Omicron [13]; Severe acute respiratory syndrome coronavirus 2, Caco-2, read-out: Anti-Omicron Activity (Caco-2) EC90): > 10 µM
